Patent publication US9561232B2, “Low dose noribogaine for treating nicotine addiction and preventing relapse of nicotine use” (priority 2014, dated 2017)

Legend:
[1] = system: nicotine dependent rats; assay: Nicotine self-administration test; assay type: in vivo, Sprague-Dawley rats; settings: all treatments, repeated measure ANOVA, P>0.05
[2] = Ascending single oral dose pharmacokinetics of noribogaine in healthy volunteers (plasma, urine, LCMSMS)
[3] = system: habitual smoker; assay: Low dose intranasal noribogaine on smoking craving; assay type: in vivo, human; settings: nanogram amount absorbed intranasally, during a period of several hours
Source text: A habitual smoker intranasally absorbed a nanogram amount of noribogaine hydrochloride. […] The patient was unaware during that period of any nicotine or smoking cravings.

**Q.** For `c1cnc2cc3c(cc2n1)[C@@H]1CNC[C@H]3C1` [varenicline, Varenicline, reference compound], which “inactive lever press during nicotine self-administration” value [1] is on record?
**A.** The value was “no significant main effect of treatment”.

**Q.** Which “time by which detected in plasma of all subjects” value ([2]; 30 mg and 60 mg noribogaine dose groups) does the source give for `CC[C@H]1C[C@@H]2C[C@H]3c4[nH]c5ccc(OC6OC(C(=O)O)C(O)C(O)C6O)cc5c4CCN(C2)[C@@H]13` (some centres unmarked) [Noribogaine glucuronide, noribogaine glucuronide] here?
**A.** The value was no more than 0.75 h.

**Q.** What about the “proportion of Cmax and AUC relative to noribogaine” value ([2]; both dose groups (30 mg, 60 mg)) of the same compound?
**A.** Its value is 3-4%.

**Q.** And the “time of peak concentrations after noribogaine dosing” value ([2]; noribogaine glucuronide in plasma, 30 mg and 60 mg dose groups)?
**A.** The value was 3 to 4 h.

**Q.** For `CC[C@@H]1C[C@H]2CC3c4[nH]c5ccc(O)cc5c4CCN(C2)C31.Cl` [noribogaine hydrochloride], which craving to smoke [3] is on record?
**A.** The craving to smoke was “any craving to smoke stopped”.
